Measurements published in PMC8333062, “Chemical tools for epichaperome-mediated interactome dysfunctions of the central nervous system” (Nature Communications, 2021).
Where “and” joins values, the source holds several entries; their conditions need not be identical. Identical values can stand only once. Like-named read-outs stand apart in the source and are kept apart here.

How the values were obtained:
MDA-MB-468 tumors [1] = test: Radioactivity metabolite characterization (radio-HPLC of tumor extracts); format: in vivo, mouse; settings: 24 h post iv
Procedure: MDA-MB-468 tumor xenografts were established on the forelimbs of female athymic nude mice (Hsd:Athymic Nude-Foxn1nu; Envigo; 6 weeks old; RRID:MGI:5652489) by subcutaneous (s.c.) injection of 5 × 10^6 cells in a 200 µl cell suspension of a 1:1 v/v mixture of PBS with reconstituted basement membrane (BD Matrigel^TM, Collaborative Biomedical Products Inc., Bedford, MA). […] After 24 h, tumors were harvested and weighed prior to homogenization in acetonitrile/H2O (3:7) using Bullet Blender Tissue Homogenizer (Next Advance Inc.). Tumor-associated radioactivity was extracted in methylene chloride, and the organic layer was separated and dried under vacuum. Samples were reconstituted in 10% CH3CN in 0.1% HCOOH in water were analyzed using Shimadzu (Columbia, Maryland USA) HPLC system equipped with binary pumps LC-20AB, UV detector and sodium iodide radioactivity detector connected to flow-ram (Lab Logic, Tampa, FL) and 250 × 4.6 mm Phenomenex Luna (Torrance, CA) C-18 HPLC column (10 µM, 100 A).

MDA-MB-468 tumors [2] = test: In vivo biodistribution of [131I]-PU-HZ151 (gamma counting); design: species or system mouse; key to Biodistribution, Lung / Biodistribution, Heart / Biodistribution, Muscle / Biodistribution, Blood / Biodistribution, Bone / Biodistribution, Brain / Biodistribution, tumor: percent injected dose per gram tissue (%ID/g); Biodistribution, Tumor - S / Biodistribution, Tumor - L: unit: %ID/g; settings: mean
Procedure: Activity in the syringe before and after administration was assayed in a dose calibrator (CRC-15R; Capintec) to determine by difference the actual activity administered to each animal. Animals were euthanized by CO2 asphyxiation at different time points post-administration of the tracer and organs including tumors were harvested and weighed. […] Count data were background and decay-corrected to the time of injection, and the percent injected dose per gram (%ID g^−1) for each tissue sample was calculated by using a measured calibration factor to convert count rate to activity and the activity was normalized to the activity injected and the mass of sample assayed to yield the activity concentration in %ID g^−1.

[3] = Pharmacokinetic studies in mice (LC-MS/MS); format: in vivo, B6D2F1 mice; settings: male, B6D2F1, mouse, iv, i.v. 10 mg kg^−1
Procedure: Blood and brain tissue were collected following euthanasia at the scheduled time points of 5, 30 min, 1, 4, and 8 h following iv dosing and of 30 min, 1, 4, and 8 h following po dosing. Brain samples were immediately flash frozen in liquid nitrogen following collection and stored at −80 °C until analysis. Blood samples were collected into an EDTA tube by heart puncture and centrifuged at 17,000×g for 5 min at 4 °C to separate the plasma and immediately frozen on dry ice and stored at −80 °C until analysis. […] This was homogenized, extracted with methylene chloride, and evaporated on a GeneVac. […] Drug concentration (μM) in the brain was then modified to account for an average water space of 0.8 mL g^−1.

MDA-MB-468 cells = test: Cell viability, ATP levels 72 h; format: cell-based, human; settings: control MDA-MB-468 of Fig. 6f; mean
[4] = cited from earlier work
[5] = biological target: HSP90 pools in JNPL3 (AD transgenic) mouse brain lysate; test: Fluorescence polarization (FP) competitive binding, cy3B-GM; settings: read-out: FP relative affinity
patient-derived GSCs = test: GSC viability (CellTiter-Glo, 48 h); format: cell-based, human; design: %Survival of cells at day 0 (ATP levels): concentration or dose not given beside the values; %Survival (ATP levels): reference not given here; settings: for %Survival (ATP levels): 1 μM, 48 h, individual replicates, listed as PU-H71; for %Survival of cells at day 0 (ATP levels): mean

## CC(C)(C)CNCCn1c(Sc2cc3c(cc2[131I])OCO3)nc2c(N)ncnc21 [[131I]-PU-HZ151]
MDA-MB-468 tumors [1]
  species in tumor extract: only [^131I]-PU-HZ151 contributed to tumor-associated radioactivity
MDA-MB-468 tumors [2]; 1 h
  Biodistribution, Blood: 0.732
  Biodistribution, Bone: 0.55
  Biodistribution, Brain: 0.397
  Biodistribution, Heart: 0.402
  Biodistribution, Lung: 0.666
  Biodistribution, Muscle: 0.29
  Biodistribution, tumor: 1.745
MDA-MB-468 tumors [2]; 4 h
  Biodistribution, Blood: 0.1086
  Biodistribution, Bone: 0.07
  Biodistribution, Brain: 0.015
  Biodistribution, Heart: 0.063
  Biodistribution, Lung: 0.296
  Biodistribution, Muscle: 0.034
  Biodistribution, Tumor - L: 0.5106
  Biodistribution, Tumor - S: 0.5895
MDA-MB-468 tumors [2]; 6 h
  Biodistribution, Blood: 0.08349
  Biodistribution, Bone: 0.05
  Biodistribution, Brain: 0.01
  Biodistribution, Heart: 0.045
  Biodistribution, Lung: 0.237
  Biodistribution, Muscle: 0.044
  Biodistribution, Tumor - L: 0.4547
  Biodistribution, Tumor - S: 0.5075
  Biodistribution, tumor: 0.5792
MDA-MB-468 tumors [2]; 8 h
  Biodistribution, Blood: 0.05883
  Biodistribution, Bone: 0.033
  Biodistribution, Brain: 0.005
  Biodistribution, Heart: 0.027
  Biodistribution, Lung: 0.129
  Biodistribution, Muscle: 0.023
  Biodistribution, Tumor - L: 0.3061
  Biodistribution, Tumor - S: 0.2819
MDA-MB-468 tumors [2]; 12 h
  Biodistribution, Blood: 0.02368
  Biodistribution, Bone: 0.012
  Biodistribution, Brain: 0.002
  Biodistribution, Heart: 0.009
  Biodistribution, Lung: 0.04
  Biodistribution, Muscle: 0.006
  Biodistribution, Tumor - L: 0.2552
  Biodistribution, Tumor - S: 0.2535
MDA-MB-468 tumors [2]; first column group, 24 h
  Biodistribution, Blood: 0.002331
  Biodistribution, Bone: 0.016
  Biodistribution, Brain: 0.001
  Biodistribution, Heart: 0.003
  Biodistribution, Lung: 0.012
  Biodistribution, Muscle: 0.002
  Biodistribution, Tumor - L: 0.2045
  Biodistribution, Tumor - S: 0.1544
MDA-MB-468 tumors [2]; first column group, 48 h
  Biodistribution, Bone: 0.004
  Biodistribution, Brain: 0
  Biodistribution, Heart: 0.002
  Biodistribution, Lung: 0.004
  Biodistribution, Muscle: 0.001
  Biodistribution, Tumor - L: 0.08346
  Biodistribution, Tumor - S: 0.08811
MDA-MB-468 tumors [2]; second column group, 24 h
  Biodistribution, Blood: 0.0041
  Biodistribution, Bone: 0.012
  Biodistribution, Brain: 0.00319
  Biodistribution, Heart: 0.0138
  Biodistribution, Lung: 0.061
  Biodistribution, Muscle: 0.002
  Biodistribution, tumor: 0.1057
MDA-MB-468 tumors [2]; second column group, 48 h
  Biodistribution, Blood: 0.00228
  Biodistribution, Bone: 0.0182
  Biodistribution, Brain: 0.00219
  Biodistribution, Heart: 0.00513
  Biodistribution, Lung: 0.0472
  Biodistribution, Muscle: 0.018
  Biodistribution, tumor: 0.03983

## CC(C)NCCCn1c(Sc2cc3c(cc2I)OCO3)nc2c(N)ncnc21 [Compound 1, reference compound]
[3]; brain, read-out: brain exposure, AUC
  AUC: 0.89 µM·h
[3]; plasma, read-out: plasma exposure, AUC
  AUC: 3.47 µM·h
PAMPA-BBB permeability; Supplementary Table 6
  PAMPA_BBB: 7.3±0.5
PAMPA-BBB permeability; pig, PAMPA, pH 7.4
  Papp at 16 h, 50 μM: 7.3 ×10⁻⁶ cm/s
MDA-MB-468 cells
  %Survival of cells at day 0 (ATP levels): -92.5%
[4]; 0.5 h, mean n=14
  SUV average, Brain: 0.17 SUV
  SUV average, Lung: 0.66 SUV
  SUV average, Muscle: 0.59 SUV
[4]; 3 h, mean n=24
  SUV average, Brain: 0.1104 SUV
  SUV average, Lung: 0.37 SUV
  SUV average, Muscle: 0.43 SUV
[4]; 24 h, mean n=24
  SUV average, Brain: 0.0956 SUV
  SUV average, Lung: 0.18 SUV
  SUV average, Muscle: 0.18 SUV
[5]
  EC50: 11 nM
patient-derived GSCs; GSC #5
  %Survival (ATP levels): 41.476% and 5.798% and 38.7842% and 30.5485%
patient-derived GSCs; GSC #6
  %Survival (ATP levels): -6.57% and -27.89% and 1.15% and -9.59%
patient-derived GSCs; GSC #7
  %Survival (ATP levels): -25.19% and -34.61% and -39.02% and -55.29%
patient-derived GSCs; GSC #8
  %Survival (ATP levels): -77.2% and -77.91% and -68.52% and -70.63%
patient-derived GSCs; GSC #9
  %Survival (ATP levels): -61.441% and -69.079% and -26.869% and -37.387% and -60.84%
patient-derived GSCs; GSC #10
  %Survival (ATP levels): -33.379% and -62.081% and -10.588% and -35.788%
patient-derived GSCs; GSC #13
  %Survival (ATP levels): 34.82% and 22.05% and 9.61% and -0.49%
patient-derived GSCs; GSC #15
  %Survival (ATP levels): -13.07% and -44.27% and -29% and -48.76%
patient-derived GSCs; GSC #18
  %Survival (ATP levels): -1.04% and -53.07% and -13.29% and -52.53% and 13.24% and -19.8%
patient-derived GSCs; GSC #19
  %Survival (ATP levels): -8.867% and -20.5667% and 16.158% and 1.691%
patient-derived GSCs; GSC #24
  %Survival (ATP levels): 12.98% and -42.57% and -22.24% and -59.3% and -24.55% and -39.04%
patient-derived GSCs; GSC #30
  %Survival (ATP levels): -64.892% and -76.295% and -41.317% and -38.952%
patient-derived GSCs; GSC #31
  %Survival (ATP levels): 52.42% and 26.79% and -5.03% and -0.87% and 70.08% and 45.37%
patient-derived GSCs; GSC# 5
  %Survival of cells at day 0 (ATP levels): 29.1%
patient-derived GSCs; GSC# 6
  %Survival of cells at day 0 (ATP levels): -10.7%
patient-derived GSCs; GSC# 8
  %Survival of cells at day 0 (ATP levels): -73.6%
patient-derived GSCs; GSC# 9
  %Survival of cells at day 0 (ATP levels): -51.1%
patient-derived GSCs; GSC# 10
  %Survival of cells at day 0 (ATP levels): -35.4%
patient-derived GSCs; GSC# 13
  %Survival of cells at day 0 (ATP levels): 16.5%
patient-derived GSCs; GSC# 15
  %Survival of cells at day 0 (ATP levels): -33.8%
patient-derived GSCs; GSC# 17
  %Survival of cells at day 0 (ATP levels): 16.9%
patient-derived GSCs; GSC# 18
  %Survival of cells at day 0 (ATP levels): -21.1%
patient-derived GSCs; GSC# 19
  %Survival of cells at day 0 (ATP levels): -2.9%
patient-derived GSCs; GSC# 24
  %Survival of cells at day 0 (ATP levels): -29.1%
patient-derived GSCs; GSC# 30
  %Survival of cells at day 0 (ATP levels): -55.4%
patient-derived GSCs; GSC# 31
  %Survival of cells at day 0 (ATP levels): 31.5%
